Measurements from ChEMBL document CHEMBL1926619, “Structure and in vitro antiparasitic activity of constituents of Citropsis articulata root bark” (J Nat Prod, 2011).
Values after ≈ are worked out from the molar mass of the structure shown.

Experiments:
Plasmodium falciparum = test: microbe, parasite or virus in culture; assay type: functional, organism-based; conditions: FcB1/Columbia
Description: Antiplasmodial activity against chloroquine-resistant Plasmodium falciparum FcB1/Colombia infected in human A+ve erythrocytes assessed as inhibition of [G-3H]hypoxanthine uptake preincubated for 24 hrs prior to [G-3H]hypoxanthine addition measured after 18 hrs by liquid scintillation counting

Leishmania donovani = test: Antileishmanial activity against Leishmania donovani MHOM/ET/L82/LV9 promastigotes after 3 days by MTT assay; assay type: functional, organism-based; conditions: MHOM/ET/L82/LV9, 72 h
[1] = test system: Trypanosoma brucei brucei; test: Antitrypanosomal activity against Trypanosoma brucei brucei; assay type: functional, organism-based
Vero = test: Cytotoxicity against african green monkey Vero cells; assay type: ADME, cell-based; conditions: Chlorocebus sabaeus
[2] = Selectivity index, ratio of IC50 for african green monkey Vero cells to IC50 for chloroquine-resistant Plasmodium falciparum FcB1/Colombia; assay type: toxicity, cell-based; conditions: read-out: Ratio IC50

Row | Compound | IC50 (Plasmodium falciparum) | EC50 (Leishmania donovani) | EC50 [1] | IC50 (Vero) | selectivity ratio [2]
1 | CC(=O)O[C@@H]1C[C@H]2C(C)(C)OC(=O)C=C[C@]2(C)[C@H]2CC[C@@]3(C)[C@H](c4ccoc4)OC(=O)[C@H]4O[C@]43[C@@]21C | 9.3 µg/mL (≈ 18.7 µM) | 45 µg/mL (≈ 90.3 µM) | > 125 µg/mL | > 50 µg/mL | 
2 | CC1(C)C=Cc2c(ccc3ccc(=O)oc23)O1 [SESALIN] | > 100 µg/mL | > 125 µg/mL | > 125 µg/mL | > 50 µg/mL | 
3 | C[n+]1cccc(C(=O)[O-])c1.Cl [TRIGONELLINE HYDROCHLORIDE] | > 100 µg/mL | > 125 µg/mL | > 125 µg/mL | > 50 µg/mL | 
4 | CC[C@@]1(O)C(=O)OCc2c1cc1n(c2=O)Cc2cc3ccccc3nc2-1 [CAMPTOTHECIN] |  |  |  | 0.6 µg/mL (≈ 1.72 µM) | 
5 | CC1(C)C=Cc2c(ccc(CCC(=O)O)c2O[C@@H]2O[C@H](CO[C@@H]3O[C@H](CO)[C@@H](O)[C@H](O)[C@H]3O)[C@@H](O)[C@H](O)[C@H]2O)O1 [OMUBIOSIDE] | > 100 µg/mL | > 125 µg/mL | > 125 µg/mL | > 50 µg/mL | 
6 | COc1cc2oc(=O)ccc2cc1CC=C(C)C [SUBEROSIN] | > 100 µg/mL | > 125 µg/mL | > 125 µg/mL | > 50 µg/mL | 
7 | COc1cc2ccc(=O)oc2cc1O[C@@H]1O[C@H](CO[C@@H]2O[C@@H](C)[C@H](O)[C@@H](O)[C@H]2O)[C@@H](O)[C@H](O)[C@H]1O [HAPLOPEROSIDE] | > 100 µg/mL | > 125 µg/mL | > 125 µg/mL | > 50 µg/mL | 
8 | NCCS[As](SCCN)c1ccc(Nc2nc(N)nc(N)n2)cc1 [CYMELARSEN] |  |  | 1 µg/mL |  | 
9 | Cn1c2c(O)cccc2c(=O)c2c(O)cc3c(c21)C=CC(C)(C)O3 | 0.9 µg/mL (≈ 2.78 µM) | 11.2 µg/mL (≈ 34.6 µM) | 125 µg/mL (≈ 387 µM) | 9.3 µg/mL (≈ 28.8 µM) | 10
10 | COc1cc2c(c(O)c1OC)c(=O)c1cccc(O)c1n2C | 3 µg/mL (≈ 9.96 µM) | 20.4 µg/mL (≈ 67.7 µM) | 125 µg/mL (≈ 415 µM) | 30.5 µg/mL (≈ 101 µM) | 10
11 | N=C(N)c1ccc(OCCCCCOc2ccc(C(=N)N)cc2)cc1 [PENTAMIDINE] |  | 3.1 µg/mL (≈ 9.11 µM) | 1.4 µg/mL (≈ 4.11 µM) |  | 
12 | C[C@@H]1O[C@@H](O[C@H]2[C@H](Oc3cc(=O)n(C)c4ccccc34)O[C@H](CO)[C@@H](O)[C@@H]2O)[C@H](O)[C@H](O)[C@H]1O [KATIMBORINE] | > 100 µg/mL | > 125 µg/mL | > 125 µg/mL | > 50 µg/mL | 
13 | CC(C)=CCc1cc2ccc(=O)oc2cc1O [DEMETHYLSUBEROSIN] | 16.7 µg/mL (≈ 72.5 µM) | 120 µg/mL (≈ 521 µM) | > 125 µg/mL | > 50 µg/mL | 
